Data on six compounds can be found in PMC6747088, “THP-1 Cells and Pro-Inflammatory Cytokine Production: An In Vitro Tool for Functional Characterization of NOD1/NOD2 Antagonists” (International Journal of Molecular Sciences, 2019).

A value given as a limit tells only on which side of the number the result lay.

In data set [1] the test system is THP-1 cells. Briefly: IL-8 and TNF-α release from THP-1 cells treated with the compound alone or with LPS. It counts as cell-based, human. To be noted: 20 h; for TNF-α release from naive THP-1 cells: agonist alone; for IL-8 release from naive THP-1 cells: MDP 2–200 µM, C12-iE-DAP 2–50 µM; for effect on LPS-induced TNF-α production: agonist 10 µM in combination with 1 ng/mL LPS. As to the method: THP-1 cells represent a convenient, robust, and reproducible alternative, which enables intra-assay comparison. A consistent protocol is of key importance to evaluate the compounds in a reproducible and unbiased manner. […] Recognition of an NOD1/NOD2 agonist triggers a signaling pathway leading to the activation of NF-κB and the production of pro-inflammatory cytokines (e.g., TNF-α, IL-1β, IL-6, IL-8). To define the optimal experimental conditions, preliminary experiments were conducted with C12-iE-DAP (lauroyl-γ-D-glutamyl-meso-diaminopimelic acid), an acylated derivative of iE-DAP, as a reference NOD1 agonist, and MDP as a NOD2 agonist. For isolated stimulation of NOD2 and NOD1 receptors, increasing concentrations of MDP (2–200 µM) and C12-iE-DAP (2–50 µM) were used, and the exposure time of 20 h was chosen based on previous experiments using THP-1 cells.
Figure 1 Dose-dependent effect of NOD1/NOD2 agonists on IL-8 (A) and TNF-α (B) secretion from THP-1 cells. IL-8 and TNF-α release from THP-1 cells were measured following 20 h treatment with increasing concentrations (up to 200 µM) of either C12-iE-DAP (NOD1 agonist) or MDP (NOD2 agonist). Columns represent means of duplicates ± SD of three independent experiments; * p < 0.05 vs. CTRL (Mann–Whitney test). Synergy of NOD1/NOD2 agonists and LPS (TLR4 agonist) on IL-8 (C) and TNF-α (D) secretion. IL-8 and TNF-α release from THP-1 cells were measured following 20 h treatment with either C12-iE-DAP or MDP, both at 2 and 10 µM, in the presence or absence of increasing concentrations of LPS (1 or 10 ng/mL). Columns represent means of duplicates ± SD of three independent experiments; * p < 0.05 vs. CTRL (Mann–Whitney test).
(§1) For all experiments, THP-1 cells (Istituto Zooprofilattico di Brescia, Brescia, Italy) were diluted to 10^6 cells/mL in RPMI 1640 containing 2 mM L-glutamine, 0.1 mg/mL streptomycin, 100 IU/mL penicillin, 50 μM 2-mercaptoethanol, and supplemented with 10% heat-inactivated fetal calf serum (media) and cultured at 37 °C in 5% CO2. The experiments were carried out on passages 3–12. To evaluate IL-8 and TNF-α production, cultures were set up in 24-well culture plates containing 500 μL of cells. They were pretreated with selected NOD antagonists at increasing concentrations for 1 h before the addition of either MDP or C12-iE-DAP (both at 10 µM) and then incubated for 20 h. Each concentration was tested in duplicate, and untreated cells were exposed to DMSO, which represented the vehicle control (not exceeding 0.2% final concentration). In synergy studies, cells were additionally stimulated with lipopolysaccharide (LPS, from Escherichia coli serotype 0127:B8, Sigma) at a final concentration of 1–10 ng/mL, as indicated in the figure legends. Cell-free supernatants were collected at 20 h by centrifugation at 3000 rpm for 5 min and stored at −80 °C.
(§2) IL-8 and TNF-α release from THP-1 cells were measured in cell-free supernatants obtained by centrifugation at 3000 rpm for 5 min and stored at −80 °C until measurement. IL-8 and TNF-α production were assessed by specific sandwich ELISA (Immunotools, Friesoythe, Germany; eBioScience/R&D Systems, Minneapolis, MN, USA). Results are expressed in pg/mL. The limit of detection was 15.6 pg/mL for IL-8 and 4 pg/mL for TNF-α.

Data set [2] has as its system NOD1. To be noted: reporter assay, NOD-overexpressing HEK cells; cited from earlier work. (In a reporter assay the amount or activity of a reporter protein is the signal.)
Data set [3] has as its target T1, NOD1 (Homo sapiens, UniProt Q9Y239).
T1 construct: THP-1 cells also express high levels of native functional NOD1 and NOD2 and respond to NOD stimulation by IL-8 secretion; endogenous in cells; host or cells: THP-1 cells (Istituto Zooprofilattico di Brescia)
T1 sequence (Q9Y239 1-953): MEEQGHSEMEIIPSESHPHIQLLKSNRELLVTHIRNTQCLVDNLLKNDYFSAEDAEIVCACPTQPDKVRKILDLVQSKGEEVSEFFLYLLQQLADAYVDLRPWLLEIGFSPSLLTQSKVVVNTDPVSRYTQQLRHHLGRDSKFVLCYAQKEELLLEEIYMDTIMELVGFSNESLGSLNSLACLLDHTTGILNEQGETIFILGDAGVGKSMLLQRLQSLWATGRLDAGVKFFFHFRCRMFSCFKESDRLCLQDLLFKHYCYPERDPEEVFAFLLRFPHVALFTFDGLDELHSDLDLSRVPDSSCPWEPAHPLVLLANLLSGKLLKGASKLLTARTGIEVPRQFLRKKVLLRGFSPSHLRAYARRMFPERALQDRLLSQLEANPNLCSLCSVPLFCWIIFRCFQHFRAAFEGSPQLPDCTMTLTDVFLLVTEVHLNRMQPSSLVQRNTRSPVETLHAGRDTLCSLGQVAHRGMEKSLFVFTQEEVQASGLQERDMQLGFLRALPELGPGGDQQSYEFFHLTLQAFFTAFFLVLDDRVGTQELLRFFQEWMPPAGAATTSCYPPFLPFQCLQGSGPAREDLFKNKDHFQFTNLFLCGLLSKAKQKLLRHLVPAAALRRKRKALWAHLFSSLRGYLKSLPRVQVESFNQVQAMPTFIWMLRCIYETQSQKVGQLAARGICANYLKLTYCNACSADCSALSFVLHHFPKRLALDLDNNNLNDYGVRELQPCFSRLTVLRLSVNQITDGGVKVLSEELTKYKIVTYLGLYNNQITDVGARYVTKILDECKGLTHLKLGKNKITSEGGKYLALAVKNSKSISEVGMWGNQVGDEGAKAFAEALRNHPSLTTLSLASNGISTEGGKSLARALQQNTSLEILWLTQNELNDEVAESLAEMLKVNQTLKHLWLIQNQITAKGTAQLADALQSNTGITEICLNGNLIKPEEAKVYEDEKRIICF
Briefly: C12-iE-DAP (NOD1 agonist)-induced IL-8 secretion from THP-1 cells. To be noted: 1 h pretreatment, C12-iE-DAP 10 µM, 20 h, read-out: IC50 (NOD1), inhibition of IL-8 release. It counts as cell-based.
Description: For all experiments, THP-1 cells (Istituto Zooprofilattico di Brescia, Brescia, Italy) were diluted to 10^6 cells/mL in RPMI 1640 containing 2 mM L-glutamine, 0.1 mg/mL streptomycin, 100 IU/mL penicillin, 50 μM 2-mercaptoethanol, and supplemented with 10% heat-inactivated fetal calf serum (media) and cultured at 37 °C in 5% CO2. The experiments were carried out on passages 3–12. To evaluate IL-8 and TNF-α production, cultures were set up in 24-well culture plates containing 500 μL of cells. They were pretreated with selected NOD antagonists at increasing concentrations for 1 h before the addition of either MDP or C12-iE-DAP (both at 10 µM) and then incubated for 20 h. Each concentration was tested in duplicate, and untreated cells were exposed to DMSO, which represented the vehicle control (not exceeding 0.2% final concentration). […] Cell-free supernatants were collected at 20 h by centrifugation at 3000 rpm for 5 min and stored at −80 °C.

Data set [4] deals with NOD2. To be noted: reporter assay, NOD-overexpressing HEK cells; cited from earlier work.
For data set [5], the system named is NOD1/2–TLR4 synergy. Description: NOD1/2–TLR4 synergy: TNF-α release from co-stimulated THP-1 cells. To be noted: antagonist 10 µM 1 h, NOD agonist 10 µM + LPS 1 ng/mL, 20 h. It counts as cell-based, human. As to the method: Figure 5 Effect of selected NOD1/NOD2 antagonists on NOD1/2–TLR4 synergy. The THP-1 cells were preincubated for 1 h with NOD antagonists (at 10 µM) before being stimulated with either C12-iE-DAP or MDP (both at 10 µM) and 1 ng/mL LPS for 20 h, followed by determination of TNF-α release in the supernatant. Columns represent means of duplicates ± SD of three independent experiments. * p < 0.05, ** p < 0.01 and *** p < 0.001 vs. MDP/LPS- or C12-iE-DAP/LPS-treated cells (Kruskal-Wallis test and post hoc Dunn’s multiple comparison test).
For all experiments, THP-1 cells (Istituto Zooprofilattico di Brescia, Brescia, Italy) were diluted to 10^6 cells/mL in RPMI 1640 containing 2 mM L-glutamine, 0.1 mg/mL streptomycin, 100 IU/mL penicillin, 50 μM 2-mercaptoethanol, and supplemented with 10% heat-inactivated fetal calf serum (media) and cultured at 37 °C in 5% CO2. The experiments were carried out on passages 3–12. To evaluate IL-8 and TNF-α production, cultures were set up in 24-well culture plates containing 500 μL of cells. […]
IL-8 and TNF-α release from THP-1 cells were measured in cell-free supernatants obtained by centrifugation at 3000 rpm for 5 min and stored at −80 °C until measurement. IL-8 and TNF-α production were assessed by specific sandwich ELISA (Immunotools, Friesoythe, Germany; eBioScience/R&D Systems, Minneapolis, MN, USA). […]

Data set [6] deals with T2, NOD2 (Homo sapiens, UniProt Q9HC29).
T2 construct: THP-1 cells also express high levels of native functional NOD1 and NOD2 and respond to NOD stimulation by IL-8 secretion; endogenous in cells; host or cells: THP-1 cells (Istituto Zooprofilattico di Brescia)
T2 sequence (Q9HC29 whole entry): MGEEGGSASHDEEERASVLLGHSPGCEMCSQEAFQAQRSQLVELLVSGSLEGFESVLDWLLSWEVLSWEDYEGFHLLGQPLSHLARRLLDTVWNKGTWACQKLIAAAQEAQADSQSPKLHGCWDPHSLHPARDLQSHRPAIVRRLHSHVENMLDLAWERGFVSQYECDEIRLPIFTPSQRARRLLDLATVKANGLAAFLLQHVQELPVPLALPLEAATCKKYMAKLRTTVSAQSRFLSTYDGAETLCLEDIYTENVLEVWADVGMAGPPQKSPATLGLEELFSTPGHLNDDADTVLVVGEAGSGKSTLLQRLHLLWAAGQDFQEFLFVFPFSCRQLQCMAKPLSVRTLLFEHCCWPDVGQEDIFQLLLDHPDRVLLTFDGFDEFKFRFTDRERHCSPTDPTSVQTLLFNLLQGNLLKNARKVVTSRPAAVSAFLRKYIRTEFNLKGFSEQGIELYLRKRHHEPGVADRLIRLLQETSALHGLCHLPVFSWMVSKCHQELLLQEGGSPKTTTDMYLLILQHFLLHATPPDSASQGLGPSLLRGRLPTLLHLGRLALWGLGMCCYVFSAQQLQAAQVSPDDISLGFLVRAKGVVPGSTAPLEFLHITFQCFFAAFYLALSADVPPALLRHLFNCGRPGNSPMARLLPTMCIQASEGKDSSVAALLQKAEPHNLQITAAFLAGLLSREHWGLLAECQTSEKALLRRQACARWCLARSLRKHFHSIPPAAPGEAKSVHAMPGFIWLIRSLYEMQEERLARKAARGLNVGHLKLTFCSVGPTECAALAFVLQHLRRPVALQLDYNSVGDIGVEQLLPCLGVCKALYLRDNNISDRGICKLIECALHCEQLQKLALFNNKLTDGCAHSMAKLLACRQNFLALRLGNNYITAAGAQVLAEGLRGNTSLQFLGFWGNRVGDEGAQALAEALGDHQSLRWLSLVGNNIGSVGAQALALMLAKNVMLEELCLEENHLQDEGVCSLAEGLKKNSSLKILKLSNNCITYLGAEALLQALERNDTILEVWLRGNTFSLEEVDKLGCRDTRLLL
Description: MDP (NOD2 agonist)-induced IL-8 secretion from THP-1 cells. It counts as cell-based. To be noted: 1 h pretreatment, MDP 10 µM, 20 h, read-out: IC50 (NOD2), inhibition of IL-8 release. As to the method: as §1, §2
All experiments were performed at least three times, with average values expressed as means ± standard deviation (SD). Statistical analyses were performed using GraphPad Prism 6 (La Jolla, CA, USA). Statistical significance was determined either with the Mann-Whitney or Kruskal-Wallis followed by a post hoc Dunn’s multiple comparison test, as indicated in the figure legends. Differences were considered nonsignificant for p > 0.05, significant (*) for p < 0.05, very significant (**) for p < 0.01 and extremely significant (***) for p < 0.001. IC50 values of NOD1/2 inhibition were calculated by a nonlinear regression model using GraphPad Prism 6 software.

The subject of data set [7] is THP-1 cells. Description: LDH leakage cytotoxicity in THP-1 cells. Format: cell-based, human. Particulars: 20 h. The procedure:
Prior to investigating the effects of selected NOD antagonists on cytokine production, their potential cytotoxicity for THP-1 cells was assessed. Cell viability was assessed by leakage of LDH from damaged cells. LDH is a well-known indicator of cell membrane integrity and cell viability. Cells were treated for 20 h with the compound of interest at concentrations of up to 50 µM. LDH activity was determined in cell-free supernatants using a commercially available colorimetric kit (Takara Bio Inc., Kusatsu, Japan). Results are expressed as OD.
For orientation: LDH leaks from cells whose membrane has failed.

For orientation: IC50 means the concentration that gives 50% inhibition.

Take `CC(=O)N[C@H]1C(O)O[C@H](CO)[C@@H](O)[C@@H]1O[C@H](C)C(=O)N[C@@H](C)C(=O)N[C@H](CCC(=O)O)C(N)=O` (mixture of isomers) [MDP, muramyl dipeptide]: in data set [1], the “TNF-α release from naive THP-1 cells” value is reported as “neither MDP nor C12-iE-DAP produced substantial TNF-α release”, the “IL-8 release from naive THP-1 cells” value is reported as “dose-dependent increase in IL-8 release” and the “effect on LPS-induced TNF-α production” value is on record as “significantly potentiated the production of TNF-α”.
Taken in the same sequence, the figures for `CCCCCCCCCCCC(=O)N[C@H](CCC(=O)N[C@@H](CCC[C@@H](N)C(=O)O)C(=O)O)C(=O)O` [C12-iE-DAP, lauroyl-γ-D-glutamyl-meso-diaminopimelic acid] were “neither MDP nor C12-iE-DAP produced substantial TNF-α release”, “dose-dependent increase in IL-8 release” and “significantly potentiated the production of TNF-α”.
On to `O=C(Cn1c(CCNC(=O)c2ccccc2)nc2ccccc21)Nc1ccc2c(c1)CCC2` [GSK669], for which the IC50 in data set [2] was above 50 µM; in data set [3], above 50 µM; in data set [4], 3.2 µM; in data set [6], 1.57 ± 0.15 µM. Moreover, the “effect on TNF-α release from co-stimulated cells” value in data set [5] is “reduced TNF-α release to the level induced by the TLR4 agonist alone”. Besides, in data set [7], the “concentrations showing cytotoxicity (LDH leakage)” value is at least 10 µM.
As to `Cc1ccc(S(=O)(=O)n2c(N)nc3ccccc32)cc1` [ML130], the IC50 in data set [4] is 54.9 µM; in data set [6], above 50 µM.
For `C/C=C/Cn1c(=O)c2[nH]c(SCCCc3ccccc3)nc2n(C)c1=O` [ML146], the concentration for half-maximal inhibition (IC50) in data set [2] is 4.35 µM; in data set [3] it was 10.5 ± 1.32 µM; in data set [4] it was 12.9 µM; in data set [6] it was 32.2 ± 5.16 µM.
On to `CCOC(=O)c1cc2ccccc2n1S(=O)(=O)c1ccc(C)cc1` [SZA-39], for which the half-maximal inhibitory concentration (IC50) in data set [2] was 5.74 µM; in data set [3], 27.5 ± 6.85 µM; in data set [4], 6.45 µM; in data set [6], 14.4 ± 1.97 µM.
